Measured values published in patent US20050233361A1, “PPARdelta assay” (priority 2004, published 2005).

Tests used:
ANGPTL4 gene expression [1] = assay: ANGPTL4 gene expression in C2C12 cells by Affymetrix micro-arrays; format: cell-based; settings: C2C12 mouse muscle cells, 20 hours, vs control = 1.00
Protocol: Cell culture: C2C12 cells (ATCC: CRL1772)
Cells were cultured in DMEM (5 mM glucose) supplemented with 10% heat-inactivated fetal calf serum (FCS). Complete medium was filtered through 0.2 μm pores before use. Differentiation was performed in 6 well dishes by serum depleting the medium (DMEM High Glucose, 2% FCS) when cells reach confluency. Cell cultures were then incubated for 5 days at 37° C. in a 90%-humidified and 95%-air-5%-CO2 sterile atmosphere to allow differentiation.
PPAR Ligands were dissolved in 100% DMSO and added to medium to adjust 0.1% (v/v) DMSO final concentration and cells were incubated with ligands for 20 hours under normal growth conditions. Three replicates were done for each condition.
RNA extraction procedure has been performed with Qiagen QIAschredder and RNeasy kits.
Approximately 1*106 pelleted cells per sample were resuspended in 350 μl guanidine thiocyanate containing RLT. Samples were loaded on a QIAshredder-column and centrifuged at full speed for 2 minutes to homogenize the lysates. After adding 350 μl ethanol to the flow-through for better binding conditions, samples were applied to RNeasy spin. For the first wash step 350 μl RW1 buffer were pipeted into the column. Then 10 μL DNase solution gently mixed with 70 μl RDD buffer were applied onto the column and incubated for 15 minutes at room temperature to remove genomic DNA. […]

ANGPTL4 gene expression [2] = assay: ANGPTL4 gene expression in C2C12 cells by qPCR; format: cell-based; settings: C2C12 mouse muscle cells, S12 reference, vs control = 1
Protocol: The culturing of the C2C12 mouse muscle cells, RNA extraction, cDNA synthesis and purifications were performed as described in Example 1.
RT-PCR was performed with the Quantitech SYBR Green kit from Qiagen according to the manufacturer's manual. Each component were added to 96 well plate: 25 μl master mix, 0.16 μl of each primer (100 μM stock solution), 22.7 μl H2O and 2 μl cDNA.
The program consists of three different steps: initial denaturation of template and heat-activation of the Taq DNA polymerase (95° C., 15 min), cycling (95° C. denaturation, 60° C. primer-template annealing, 72° C. elongation, fluorescence aquisition), and final melting (melting curve 55 to 95° C., measurements in 0.5° C. steps).
The relative quantification is based on the relative expression of the target gene versus a reference gene. […] The cycle number at which threshold fluorescence is reached, is called ct value. […] The relative ct value of a target gene compared to the ct value of an internal reference in the control or untreated sample is expressed as Δct.control=ctreference of control−cttarget of control and in a treated, unknown sample as Δct.sample=ctreference of sample−cttarget of sample.
As internal reference for quantitative studies the ribosomal protein S12 gene expression was used. […] Setting of fluorescence threshold is determined by the light cycler software. The obtained ct values (duplicates for one sample, two samples per condition) were exported into Microsoft Excel and analyzed as described above.

Cc1nc(-c2ccc(C(F)(F)F)cc2)sc1C(Sc1ccc(OCC(=O)O)c2ccccc12)C1CCCC1 (racemic) [C, [rac]-(4-{Cyclopentyl-[4-methyl-2-(4-trifluoromethyl-penyl)-thiazol-5-yl]-methylsulfanyl}-naphtalen-1-yloxy}-acetic]
ANGPTL4 gene expression fold changes (ANGPTL4 gene expression [1]; 500 nM): 8.87 fold | ANGPTL4 gene expression fold changes (ANGPTL4 gene expression [2]; 500 nM): 10.06 fold

CC(C)(Oc1ccc(C(=O)c2ccc(Cl)cc2)cc1)C(=O)O [A, 2-[4-(4-Chlorobenzoyl)-phenoxy]-2-methylpropanoic acid]
ANGPTL4 gene expression fold changes (ANGPTL4 gene expression [1]; 300 μM): 1.99 fold | ANGPTL4 gene expression fold changes (ANGPTL4 gene expression [2]; 300 μM): 2.61 fold

Cc1cc(N(C)Cc2sc(-c3ccc(C(F)(F)F)cc3)nc2C)ccc1OCC(=O)O [D, (2-Methyl-4-{Methyl-[4-methyl-2-(4-trifluoromethyl-phenyl)-thiazol-5-ylmethyl]-amino}-phenoxy)-acetic acid]
ANGPTL4 gene expression fold changes (ANGPTL4 gene expression [2]; 500 nM): 13.51 fold
